According to patent US7655676B2, “Use of amide derivative of GE 2270 factor A3 for the treatment of acne” (Naicons S.C.A.R.L., priority 2002, dated 2010):
In brackets after ≈: the same amount, converted by molar mass. Several values for one entry are separate records, joined by “and”; a condition that tells them apart may be missing. Equal values may be shown once.

How the values were obtained:
[1] = system: clinical isolates of P. acnes displaying antibiotic-resistant phenotypes; assay: MIC against clinical isolates of P. acnes displaying antibiotic-resistant phenotypes (Table 2); assay type: cell-based, Propionibacterium acnes; conditions: for Cumul. %: resistant isolates
From the text: (§3) MIC50 and MIC90 means minimum inhibitory concentration capable of inhibiting 50% and 90%, respectively, of the strains tested.

[2] = system: clinical isolates of P. acnes displaying antibiotic-sensitive phenotypes; assay: MIC against clinical isolates of P. acnes displaying antibiotic-sensitive phenotypes (Table 3); assay type: cell-based, Propionibacterium acnes; conditions: Cutibacterium acnes
From the text: as §3

Streptococcus pyogenes = assay: MIC in vitro, Streptococcus pyogenes (Table 1); assay type: cell-based; conditions: C 203, MH
From the text: (§1) In particular, bacterial strains which should not be affected by topical administration of the anti-acne candidate compound are Staphylococcus aureus, Staphylococcus epidermidis, and Streptococcus pyogenes strains.
(§2) The tests have been carried out in comparison with antibiotic GE 2270 and four representative compounds (B, C, D and E) described in U.S. Pat. No. 5,599,791.

[3] = system: Staphylococcus epidermidis; assay: MIC in vitro, Staphylococcus epidermidis (Table 1); assay type: cell-based; conditions: ATCC 12228, MH
From the text: as §1, §2

Staphylococcus aureus = assay: MIC in vitro, Staphylococcus aureus (Table 1); assay type: cell-based
From the text: as §1, §2

Propionibacterium acne = assay: MIC in vitro, Propionibacterium acne strains (Table 1); assay type: cell-based, Propionibacterium acnes
From the text: as §1, §2

Compound | MIC50 ([1]; Cutibacterium acnes) [µg/mL] | MIC90 ([1]; Cutibacterium acnes) [µg/mL] | N° isolates ([1]; resistant isolates with MIC 512 μg/ml) | N° isolates ([1]; resistant isolates with MIC 1024 μg/ml) | N° isolates ([1]; resistant isolates with MIC 2048 μg/ml) | Cumul. % ([1]; cumulative at MIC 512 μg/ml) [%] | Cumul. % ([1]; cumulative at MIC 1024 μg/ml) [%] | Cumul. % ([1]; cumulative at MIC 2048 μg/ml) [%] | MIC90 [2] [µg/mL] | MIC (Streptococcus pyogenes) [µg/mL] | MIC [3] [µg/mL] | MIC (Staphylococcus aureus; MRSA, MH) [µg/mL] | MIC (Staphylococcus aureus; Smith ATCC 19636, MH + 30% bovine serum) [µg/mL] | MIC (Staphylococcus aureus; Smith ATCC 19636, Mueller Hinton (MH)) [µg/mL] | MIC (Propionibacterium acne; ATCC 6919, Wilkins Chalgren (WC)) [µg/mL] | MIC (Propionibacterium acne; ATCC 6922, WC) [µg/mL] | MIC (Propionibacterium acne; ATCC 25746, WC) [µg/mL] | MIC (Propionibacterium acne; clinical isolate, WC (one table line per isolate)) | MIC (Propionibacterium acne; clinical isolate, medium not given) [µg/mL]
CC[C@H]1OC(=O)[C@H](C)[C@@H](O[C@H]2C[C@@](C)(OC)[C@@H](O)[C@H](C)O2)[C@H](C)[C@@H](O[C@@H]2O[C@H](C)C[C@H](N(C)C)[C@H]2O)[C@](C)(O)C[C@@H](C)C(=O)[C@H](C)[C@@H](O)[C@]1(C)O [Erythromycin] | 1020 (≈ 1400 µM) | 2050 (≈ 2790 µM) | 1 | 11 | 3 | 7 | 80 | 100 | 0.125 (≈ 0.17 µM) | – | – | – | – | – | – | – | – | – | –
GE 2270 | – | – | – | – | – | – | – | – | – | 0.25 | <0.125 | <0.125 | 0.25 | 0.06 | <0.125 | <0.125 | <0.125 | <0.125 µg/mL and 0.125 µg/mL | <0.125
